Reference: PubChem BioAssay AID2060900 (Molecular Pharmacology Branch, DTP, NCI, 2025)

Test system: 521955-158-R2-J5-PDC complex spheroids, viability
Experiment: Anticancer human tumor 521955-158-R2-J5-PDC patient-derived pancreatic carcinoma cell line growth inhibition [RAS]
Conditions: for IC50: curve of first compound; for viability, T/C: stronger effect = lower value
How it was run: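 Tumour cells grown as complex spheroids with HUVEC endothelial cells and mesenchymal stem cells, treated with RAS pathway inhibitor combinations. Each agent spans half-log steps from near clinical Cmax, or 10 microM where Cmax is unknown.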
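Note: compound exposure lasted seven days before the viability read.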
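Throughout, for viability, T/C: spheroids also contain HUVEC endothelial cells and mesenchymal stem cells as stroma.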

Which IC50 (second compound 0.000949 µM) does the source give for `O=C(c1ccc(F)c(F)c1Nc1ccc(I)cc1F)N1CC(O)([C@@H]2CCCCN2)C1` + CCn1c(-c2cc(N3CCN(C)CC3)cnc2C(C)OC)c2c3cc(ccc31)-c1csc(n1)CC(NC(=O)C1CC1C)C(=O)N1CCCC(N1)C(=O)OCC(C)(C)C2 here?
The IC50 was 20.9 nM.

And the IC50 (second compound 0.003 µM)?
The IC50 was under 3.16 nM.

What about the IC50 (second compound 0.00949 µM) of the same compound?
Its IC50 is under 3.16 nM.

And the IC50 (second compound 0.03 µM)?
Its IC50 is under 3.16 nM.

And the IC50 (second compound 0.0949 µM)?
The IC50 was under 3.16 nM.

And the IC50 (second compound 0.3 µM)?
Its IC50 is under 3.16 nM.

What about the viability, T/C (second compound 0.000949 µM, first compound 0.00316 µM) of the same compound?
Its viability, T/C is 59.3%.

What about the viability, T/C (second compound 0.000949 µM, first compound 0.01 µM) of the same compound?
The viability, T/C was 50.1%.

What about the viability, T/C (second compound 0.000949 µM, first compound 0.0316 µM) of the same compound?
Its viability, T/C is 49.4%.

And the viability, T/C (second compound 0.000949 µM, first compound 0.1 µM)?
Its viability, T/C is 38.6%.

What about the viability, T/C (second compound 0.000949 µM, first compound 0.316 µM) of the same compound?
Its viability, T/C is 26.4%.

And the viability, T/C (second compound 0.000949 µM, first compound 1 µM)?
The viability, T/C was 24.1%.

What about the viability, T/C (second compound 0.003 µM, first compound 0.00316 µM) of the same compound?
The viability, T/C was 41.5%.

What about the viability, T/C (second compound 0.003 µM, first compound 0.01 µM) of the same compound?
The viability, T/C was 46.7%.

What about the viability, T/C (second compound 0.003 µM, first compound 0.0316 µM) of the same compound?
Its viability, T/C is 39%.

And the viability, T/C (second compound 0.003 µM, first compound 0.1 µM)?
Its viability, T/C is 26.8%.

And the viability, T/C (second compound 0.003 µM, first compound 0.316 µM)?
The viability, T/C was 20.1%.

What about the viability, T/C (second compound 0.003 µM, first compound 1 µM) of the same compound?
The viability, T/C was 17.4%.

What about the viability, T/C (second compound 0.00949 µM, first compound 0.00316 µM) of the same compound?
The viability, T/C was 32.3%.

What about the viability, T/C (second compound 0.00949 µM, first compound 0.01 µM) of the same compound?
The viability, T/C was 32.1%.

And the viability, T/C (second compound 0.00949 µM, first compound 0.0316 µM)?
The viability, T/C was 29.2%.

And the viability, T/C (second compound 0.00949 µM, first compound 0.1 µM)?
Its viability, T/C is 17.4%.

And the viability, T/C (second compound 0.00949 µM, first compound 0.316 µM)?
Its viability, T/C is 17.8%.

And the viability, T/C (second compound 0.00949 µM, first compound 1 µM)?
Its viability, T/C is 15%.

And the viability, T/C (second compound 0.03 µM, first compound 0.00316 µM)?
The viability, T/C was 23.7%.

What about the viability, T/C (second compound 0.03 µM, first compound 0.01 µM) of the same compound?
The viability, T/C was 18.3%.

What about the viability, T/C (second compound 0.03 µM, first compound 0.0316 µM) of the same compound?
Its viability, T/C is 14.9%.

What about the viability, T/C (second compound 0.03 µM, first compound 0.1 µM) of the same compound?
Its viability, T/C is 10.8%.

What about the viability, T/C (second compound 0.03 µM, first compound 0.316 µM) of the same compound?
Its viability, T/C is 10.3%.

And the viability, T/C (second compound 0.03 µM, first compound 1 µM)?
Its viability, T/C is 6.61%.

What about the viability, T/C (second compound 0.0949 µM, first compound 0.00316 µM) of the same compound?
Its viability, T/C is 8.68%.

What about the viability, T/C (second compound 0.0949 µM, first compound 0.01 µM) of the same compound?
Its viability, T/C is 11.3%.

And the viability, T/C (second compound 0.0949 µM, first compound 0.0316 µM)?
Its viability, T/C is 12.6%.

What about the viability, T/C (second compound 0.0949 µM, first compound 0.1 µM) of the same compound?
Its viability, T/C is 8.23%.

And the viability, T/C (second compound 0.0949 µM, first compound 0.316 µM)?
The viability, T/C was 9.48%.

And the viability, T/C (second compound 0.0949 µM, first compound 1 µM)?
The viability, T/C was 7.34%.

What about the viability, T/C (second compound 0.3 µM, first compound 0.00316 µM) of the same compound?
Its viability, T/C is 12.8%.

And the viability, T/C (second compound 0.3 µM, first compound 0.01 µM)?
Its viability, T/C is 7.85%.

And the viability, T/C (second compound 0.3 µM, first compound 0.0316 µM)?
Its viability, T/C is 6.59%.

What about the viability, T/C (second compound 0.3 µM, first compound 0.1 µM) of the same compound?
Its viability, T/C is 9.27%.

What about the viability, T/C (second compound 0.3 µM, first compound 0.316 µM) of the same compound?
Its viability, T/C is 7.62%.

And the viability, T/C (second compound 0.3 µM, first compound 1 µM)?
The viability, T/C was 6.97%.
